Assay results published in ChEMBL document CHEMBL1201862, “PubChem BioAssay data set” (2004).
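Interpolation was linear, between the two tested concentrations surrounding the appropriate level; five concentrations were tested over 48 hours in 96-well plates. GI50 = concentration required for 50% inhibition of growth.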 Calls of active or inactive are those of the source. Cut-off read from the data, not from the text of the source: active = GI50 up to about 1.1 µM and inactive = higher.

Tests used:
Assay in all cases: NCI anticancer screen, dose series, 48 h
[1] = test system: A498
[2] = test system: A549
[3] = test system: BT-549
[4] = test system: EKVX
[5] = test system: HOP-92
[6] = test system: K562
[7] = test system: LOX IMVI
[8] = test system: M14
[9] = test system: Malme-3M
[10] = test system: NCI-H460
[11] = test system: OVCAR-4
[12] = test system: RPMI-8226
[13] = test system: SF-295
[14] = test system: SNB-75
[15] = test system: SR
[16] = test system: TK-10
[17] = test system: UACC-257
[18] = test system: UACC-62
[19] = test system: UO-31
[20] = test system: OVCAR-8

Row | SMILES | GI50 [1] | GI50 [2] | GI50 [3] | GI50 [4] | GI50 [5] | GI50 [6] | GI50 [7] | GI50 [8] | GI50 [9] | GI50 [10] | GI50 [11] | GI50 [12] | GI50 [13] | GI50 [14] | GI50 [15] | GI50 [16] | GI50 [17] | GI50 [18] | GI50 [19] | GI50 [20]
1 | COc1cccc(/C=C2\CCCCCC2=O)c1 | > 100 µM (inactive) | > 100 µM (inactive) | > 100 µM (inactive) | > 100 µM (inactive) | > 100 µM (inactive) | 72.3 µM (inactive) | > 100 µM (inactive) | > 100 µM (inactive) | > 100 µM (inactive) | 52 µM (inactive) | > 100 µM (inactive) | 31 µM (inactive) | > 100 µM (inactive) | 62.5 µM (inactive) | 26.7 µM (inactive) | > 100 µM (inactive) | > 100 µM (inactive) | > 100 µM (inactive) | 81.5 µM (inactive) | 
2 | C=C1C(C(O)C[C@H](C)C2O[C@@]3(CCCCO3)CCC2C)O[C@@H]2CCC3(CCC(/C=C/[C@@H](C)C4CC(C)=CC5(O4)O[C@H](C[C@](C)(O)C(=O)O)CCC5O)O3)OC2[C@@H]1O (stereo partly drawn) | 0.00564 µM (active) | 0.0267 µM (active) | 0.00681 µM (active) | 0.00614 µM (active) | 0.00375 µM (active) | 0.00429 µM (active) | 0.004 µM (active) | 0.00176 µM (active) | 0.000764 µM (active) | 0.00408 µM (active) | 0.0286 µM (active) | 0.00315 µM (active) | 0.00578 µM (active) | 0.000608 µM (active) | 0.00964 µM (active) | 0.0162 µM (active) | 0.00839 µM (active) | 0.00347 µM (active) | 0.0527 µM (active) | 0.00693 µM (active)
3 | O=C1NC(SSC2=NNC3(C(=O)N2)c2ccccc2-c2ccccc23)=NNC12c1ccccc1-c1ccccc12 | > 10 µM (inactive) | > 10 µM (inactive) | > 10 µM (inactive) | > 10 µM (inactive) | > 10 µM (inactive) | > 10 µM (inactive) | > 10 µM (inactive) | > 10 µM (inactive) | > 10 µM (inactive) | > 10 µM (inactive) | > 10 µM (inactive) | > 10 µM (inactive) | > 10 µM (inactive) | > 10 µM (inactive) | > 10 µM (inactive) | > 10 µM (inactive) | > 10 µM (inactive) | > 10 µM (inactive) | > 10 µM (inactive) | > 10 µM (inactive)
4 | CCC(c1ccc2cc(O)ccc2c1)C(C)(C)C(=O)O (stereo not drawn) | > 100 µM (inactive) | > 100 µM (inactive) | > 100 µM (inactive) | > 100 µM (inactive) | > 100 µM (inactive) | > 100 µM (inactive) | > 100 µM (inactive) | > 100 µM (inactive) | > 100 µM (inactive) | > 100 µM (inactive) | > 100 µM (inactive) | > 100 µM (inactive) | > 100 µM (inactive) | > 100 µM (inactive) | > 100 µM (inactive) | > 100 µM (inactive) | > 100 µM (inactive) | > 100 µM (inactive) | > 100 µM (inactive) | > 100 µM (inactive)
5 | O=S(=O)(c1ccccc1)C(c1ccc2ccccc2n1)S(=O)(=O)c1ccccc1 | > 100 µM (inactive) | > 100 µM (inactive) | > 100 µM (inactive) | > 100 µM (inactive) | > 100 µM (inactive) | > 100 µM (inactive) | > 100 µM (inactive) |  | > 100 µM (inactive) | > 100 µM (inactive) | 55.6 µM (inactive) | > 100 µM (inactive) | > 100 µM (inactive) | > 100 µM (inactive) | > 100 µM (inactive) | > 100 µM (inactive) | > 100 µM (inactive) |  | > 100 µM (inactive) | > 100 µM (inactive)
6 | COc1ccc(-c2oc3cc(O)c(OC)c(O)c3c(=O)c2O)cc1 [BETULETOL] | 7.11 µM (inactive) | 3.33 µM (inactive) | 8.36 µM (inactive) | 18.9 µM (inactive) | 6.7 µM (inactive) | 10.9 µM (inactive) | 6.19 µM (inactive) | 17.8 µM (inactive) | 10.5 µM (inactive) | 1.74 µM (inactive) | 30.2 µM (inactive) | 6.1 µM (inactive) | 6.08 µM (inactive) | 10.4 µM (inactive) | 3.08 µM (inactive) | 19.5 µM (inactive) | 54 µM (inactive) | 10.3 µM (inactive) | 6.46 µM (inactive) | 9.95 µM (inactive)
7 | COc1cc(/C=N/c2ccccn2)cc(OC)c1OC | > 100 µM (inactive) | > 100 µM (inactive) | > 100 µM (inactive) | > 100 µM (inactive) | > 100 µM (inactive) | > 100 µM (inactive) | > 100 µM (inactive) | > 100 µM (inactive) | > 100 µM (inactive) | > 100 µM (inactive) | > 100 µM (inactive) | 65 µM (inactive) | > 76.9 µM (inactive) | > 100 µM (inactive) | > 63.2 µM (inactive) |  | > 100 µM (inactive) | > 100 µM (inactive) | > 100 µM (inactive) | > 100 µM (inactive)
8 | OC1CC2CCC(C1)N2CCCN1c2ccccc2Sc2ccc(Cl)cc21 (stereo not drawn) | 1.84 µM (inactive) | 2.54 µM (inactive) | 4.86 µM (inactive) | 3.72 µM (inactive) | 2.5 µM (inactive) | 2.04 µM (inactive) | 1.7 µM (inactive) | 1.81 µM (inactive) | 1.87 µM (inactive) | 1.75 µM (inactive) | 3.69 µM (inactive) | 1.87 µM (inactive) | 1.75 µM (inactive) | 2.21 µM (inactive) | 2.2 µM (inactive) | 1.66 µM (inactive) | 1.29 µM (inactive) | 1.64 µM (inactive) | 2.46 µM (inactive) | 2.11 µM (inactive)
9 | CC(C)NC(=O)OCc1c(COC(=O)NC(C)C)c(-c2ccc[n+](COC(=O)C3CC3)c2)n2c1CCC2 | 35.9 µM (inactive) | 89.1 µM (inactive) | 76.6 µM (inactive) | > 100 µM (inactive) | 40.8 µM (inactive) | 32.6 µM (inactive) | 38.8 µM (inactive) | 85.9 µM (inactive) | > 100 µM (inactive) | 24.2 µM (inactive) | 45.8 µM (inactive) | 60.4 µM (inactive) | 45.9 µM (inactive) | 70.6 µM (inactive) | 3.51 µM (inactive) | > 100 µM (inactive) | > 100 µM (inactive) | 27.6 µM (inactive) | 41.2 µM (inactive) | 55 µM (inactive)
10 | O=[N+]([O-])c1ccc(C[S+]([O-])Cc2ccccc2)cc1 (stereo not drawn) | > 100 µM (inactive) | > 100 µM (inactive) | > 100 µM (inactive) | > 100 µM (inactive) | > 100 µM (inactive) | > 100 µM (inactive) | > 100 µM (inactive) | > 100 µM (inactive) | > 100 µM (inactive) | > 100 µM (inactive) | > 100 µM (inactive) | > 100 µM (inactive) | > 100 µM (inactive) | 39.9 µM (inactive) | > 100 µM (inactive) | > 100 µM (inactive) | > 100 µM (inactive) | > 100 µM (inactive) | > 100 µM (inactive) | > 100 µM (inactive)
11 | Cc1ccc(NCCN(C)C)c2c(=O)c3cc(O)ccc3oc12 | 14.9 µM (inactive) | 6.25 µM (inactive) | 16.7 µM (inactive) | 15.7 µM (inactive) | 11.1 µM (inactive) | 4.09 µM (inactive) | 9.53 µM (inactive) | 12.4 µM (inactive) | 13.9 µM (inactive) | 0.889 µM (active) | 17 µM (inactive) | 5.08 µM (inactive) | 10.9 µM (inactive) | 4.79 µM (inactive) | 0.083 µM (active) | 14.6 µM (inactive) | 18.3 µM (inactive) | 10.1 µM (inactive) | 9.2 µM (inactive) | 6.97 µM (inactive)
12 | CCC(=O)Nc1cccc(NC(=O)c2c(Cl)c(Cl)c(Cl)c(Cl)c2-c2nc3ccccc3[nH]2)c1 | > 100 µM (inactive) | 0.0851 µM (active) | 87.3 µM (inactive) | 52.8 µM (inactive) | 5.36 µM (inactive) | 25.4 µM (inactive) | 77.4 µM (inactive) | 29 µM (inactive) | > 100 µM (inactive) | 37.8 µM (inactive) | 71.6 µM (inactive) | 8.02 µM (inactive) | 0.0417 µM (active) | 3.94 µM (inactive) | 17.6 µM (inactive) |  | 59 µM (inactive) | 5.21 µM (inactive) | 21.7 µM (inactive) | > 100 µM (inactive)
13 | O=C(CCCN1CCC2(CC1)CC(=O)N(N1CCCCCC1)C2=O)c1ccccc1 | > 100 µM (inactive) | > 100 µM (inactive) | > 100 µM (inactive) | > 100 µM (inactive) | > 100 µM (inactive) | 70.8 µM (inactive) | > 100 µM (inactive) | > 100 µM (inactive) | > 100 µM (inactive) |  | > 100 µM (inactive) | > 100 µM (inactive) | > 100 µM (inactive) | > 100 µM (inactive) | 14.2 µM (inactive) | > 100 µM (inactive) | > 100 µM (inactive) | > 100 µM (inactive) | > 100 µM (inactive) | > 100 µM (inactive)
14 | CC1=C2CC3=C(C)C(=O)O[C@H]3C[C@@H](C)[C@@H]2CC1 [AMERICANOLIDE D] | > 100 µM (inactive) |  | > 100 µM (inactive) | > 100 µM (inactive) | > 100 µM (inactive) | 37.8 µM (inactive) | > 100 µM (inactive) | > 100 µM (inactive) | > 100 µM (inactive) | > 100 µM (inactive) | > 100 µM (inactive) | > 100 µM (inactive) | > 100 µM (inactive) | 97.5 µM (inactive) | 62.1 µM (inactive) | > 100 µM (inactive) | > 100 µM (inactive) | > 100 µM (inactive) | > 100 µM (inactive) | > 100 µM (inactive)
